Experimental data as given in paper PMC11866180, “Facile Synthesis of Carbamoyl Fluorides viaN-Carbamoylimidazole Activation” (ACS Omega, 2025).

Biological target: T1, hBChE (human butyrylcholinesterase) (Homo sapiens, UniProt P06276)
T1 construct: gene BCHE
Assay: Ellman assay, […] nm
Format: biochemical
Conditions: not given

T1 sequence (P06276 29-602): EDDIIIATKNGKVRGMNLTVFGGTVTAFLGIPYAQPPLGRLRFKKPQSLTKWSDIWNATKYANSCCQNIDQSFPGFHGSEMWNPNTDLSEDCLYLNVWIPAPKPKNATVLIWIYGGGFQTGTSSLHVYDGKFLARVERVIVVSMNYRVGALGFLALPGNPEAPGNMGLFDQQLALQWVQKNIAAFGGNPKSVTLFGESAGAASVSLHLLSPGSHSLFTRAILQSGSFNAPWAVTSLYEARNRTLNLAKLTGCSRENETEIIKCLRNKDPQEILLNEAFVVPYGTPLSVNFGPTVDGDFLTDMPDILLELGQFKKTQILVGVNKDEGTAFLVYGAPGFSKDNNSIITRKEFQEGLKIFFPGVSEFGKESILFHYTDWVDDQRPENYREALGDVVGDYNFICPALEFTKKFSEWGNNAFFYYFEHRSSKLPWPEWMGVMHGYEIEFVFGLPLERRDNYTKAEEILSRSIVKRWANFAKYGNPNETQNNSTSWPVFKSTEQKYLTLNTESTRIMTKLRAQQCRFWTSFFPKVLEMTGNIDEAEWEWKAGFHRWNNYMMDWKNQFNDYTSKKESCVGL

| SMILES | IC50 [nM] |
| --- | --- |
| CCCCN(Cc1ccccc1)C(=O)F [3c, Benzyl(butyl)carbamic Fluoride] | 2430 ± 400 |
| O=C(F)N1CCC(c2c[nH]c3ccccc23)CC1 [3h, 4-(1H-Indol-3-yl)piperidine-1-carbonyl Fluoride] | 23.5 ± 4.6 |
| C#CCCCCCCCCCN(C)C(=O)F [3i, Methyl(undec-10-yn-1-yl)carbamic Fluoride] | 197 ± 36 |
| O=C(F)N1CCN(c2ccccc2F)CC1 [3j, 4-(2-Fluorophenyl)piperazine-1-carbonyl Fluoride] | 656 ± 32 |

Same assay, conditions: read-out: hBChE

| SMILES | IC50 [nM] |
| --- | --- |
| CN(Cc1ccccc1)C(=O)F [3a, Benzyl(methyl)carbamic Fluoride] | 156 ± 9 |
| O=C(F)N(Cc1ccccc1)Cc1ccccc1 [3b, Dibenzylcarbamic Fluoride] | 69.6 ± 4 |
| O=C(F)N1Cc2ccccc2C1 [3e, Isoindoline-2-carbonyl Fluoride] | 32200 |
| O=C(F)N1CCc2ccccc2C1 [3f, 3,4-Dihydroisoquinoline-2(1H)-carbonyl Fluoride] | 707 ± 122 |
| O=C(F)N1CCC(Cc2ccccc2)CC1 [3g, 4-Benzylpiperidine-1-carbonyl Fluoride] | 2.78 ± 0.15 |
| CN(C(=O)F)c1cccc2cc[nH]c12 [3k, (1H-Indol-7-yl)(methyl)carbamic Fluoride] | 5.56 ± 0.83 |

Biological target: T2, hAChE (human acetylcholinesterase) (Homo sapiens, UniProt P22303)
T2 construct: gene ACHE
T2 sequence (P22303 32-614): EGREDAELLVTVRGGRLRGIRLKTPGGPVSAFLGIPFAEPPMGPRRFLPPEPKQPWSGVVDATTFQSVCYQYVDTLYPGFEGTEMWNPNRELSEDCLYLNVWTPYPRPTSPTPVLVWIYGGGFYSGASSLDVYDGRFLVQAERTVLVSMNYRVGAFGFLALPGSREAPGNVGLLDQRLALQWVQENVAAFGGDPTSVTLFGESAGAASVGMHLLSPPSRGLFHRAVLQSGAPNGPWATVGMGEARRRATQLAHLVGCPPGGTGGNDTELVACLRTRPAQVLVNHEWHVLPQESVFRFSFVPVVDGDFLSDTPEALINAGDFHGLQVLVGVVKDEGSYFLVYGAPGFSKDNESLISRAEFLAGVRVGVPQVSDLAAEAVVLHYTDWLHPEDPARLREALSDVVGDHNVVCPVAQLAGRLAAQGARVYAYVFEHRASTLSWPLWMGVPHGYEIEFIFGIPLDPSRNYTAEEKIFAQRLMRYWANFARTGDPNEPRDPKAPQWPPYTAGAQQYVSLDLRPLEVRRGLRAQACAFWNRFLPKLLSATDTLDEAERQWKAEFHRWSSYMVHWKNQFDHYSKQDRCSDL
Assay: Ellman assay, […] nm
Format: biochemical
Conditions: not given

| SMILES | IC50 [nM] |
| --- | --- |
| CCCCN(Cc1ccccc1)C(=O)F [3c, Benzyl(butyl)carbamic Fluoride] | 4480 ± 1140 |
| O=C(F)N1CCC(c2c[nH]c3ccccc23)CC1 [3h, 4-(1H-Indol-3-yl)piperidine-1-carbonyl Fluoride] | 18700 |
| C#CCCCCCCCCCN(C)C(=O)F [3i, Methyl(undec-10-yn-1-yl)carbamic Fluoride] | 5070 ± 1150 |
| O=C(F)N1CCN(c2ccccc2F)CC1 [3j, 4-(2-Fluorophenyl)piperazine-1-carbonyl Fluoride] | 10700 |

Same assay, conditions: read-out: hAChE

| SMILES | IC50 [nM] |
| --- | --- |
| CN(Cc1ccccc1)C(=O)F [3a, Benzyl(methyl)carbamic Fluoride] | 5650 ± 947 |
| O=C(F)N(Cc1ccccc1)Cc1ccccc1 [3b, Dibenzylcarbamic Fluoride] | 2200 ± 270 |
| O=C(F)N1CCc2ccccc21 [3d, Indoline-1-carbonyl Fluoride] | 4620 ± 1150 |
| O=C(F)N1Cc2ccccc2C1 [3e, Isoindoline-2-carbonyl Fluoride] | 103000 |
| O=C(F)N1CCc2ccccc2C1 [3f, 3,4-Dihydroisoquinoline-2(1H)-carbonyl Fluoride] | 22600 |
| O=C(F)N1CCC(Cc2ccccc2)CC1 [3g, 4-Benzylpiperidine-1-carbonyl Fluoride] | 554 ± 79 |
| CN(C(=O)F)c1cccc2cc[nH]c12 [3k, (1H-Indol-7-yl)(methyl)carbamic Fluoride] | 151 ± 8 |

Biological target: T1, hBChE (human butyrylcholinesterase)
Assay: Ellman assay, […] nm
Format: biochemical
Conditions: not given
Remark: another data set of the same source

| SMILES | activity at 100 µM [%] |
| --- | --- |
| O=C(F)N1CCc2ccccc21 [3d, Indoline-1-carbonyl Fluoride] | 56.2 ± 3.7 |
